“Also recorded” adds a separate entry of the source.
Legend:
[1] = tested on: PGE2; assay: Plasma PGE2 (PGE2 metabolite competitive EIA) in OA canines; type: in vivo, canine; conditions: 36 mg/kg/day oral
Procedure: The double-blind study was performed on a total of 30 adult canines of various breeds in five different private practice clinics. Owner consent was obtained prior to participation in the study. Each clinic was responsible for enrolling 6 canines into the study. Inclusion criteria for the study consisted of clinical assessment and radiograph confirmation of OA in at least one joint and a score of 22 or greater on the Helsinki chronic pain index (“HCPI”). Use of NSAIDs or other dietary supplements for OA were allowed, provided the current treatment regimens had not been altered for a period of at least three months. […]
In addition to the standard blood chemistry profile, blood samples taken before and at the conclusion of the two-week trial period were analyzed for PGE2 and SAA. […] Both plasma and serum samples were centrifuged at 2000×g for 10 minutes and the plasma and serum supernatants removed and frozen at […] until analyzed for PGE2 and SAA using enzyme-linked immunosorbent assays (“HA”). […] Plasma samples were analyzed for PGE2 using the bicycle PGE2 competitive EIA kit purchased from Cayman Chemical (Ann Arbor, MI). The assay converts PGE2 metabolites into a stable derivative that is measured using EIA. Samples (100 μl) were analyzed in triplicate and PGE2 concentrations determined by use of standard curve. […]

[2] = tested on: cultured canine chondrocytes; assay: PGE2 release in cultured canine chondrocytes challenged with IL1b; type: cell-based; conditions: 100 μM, IL1b challenge, FIG. 3
Procedure: The study involved the use of cultured canine chondrocytes (i.e., cells within the joint that are activated during OA). The canine chondrocytes were subjected to an inflammatory challenge in the form of cytokine Interleukin 1 beta (“IL1b”). The canine chondrocytes were then treated with various anti-inflammatory compounds including Alpha-GEE; glucosamine; a TNFα receptor antagonist; and a NSAID (Rimadyl). Alpha-GEE was administered in concentrations ranging from 10 μM to 1000 μM. The resulting effects of the various treatments on both PGE2 release and TNFα release were examined.
Alpha-GEE, glucosamine, and Rimadyl were used in a concentration of 100 μM, while the TNFα inhibitor was used in a concentration of 1 μM. Based on all of the treatments examined (i.e., Alpha-GEE; glucosamine; NSAID (Rimadyl); and TNFα receptor antagonist), Alpha-GEE produced the most dramatic decrease in PGE2 at the early 4-hour time point. […] The reduction in PGE2 release at the early 4 hour time point was greater than that observed with the NSAID, Rimadyl, glucosamine, or TNFα receptor blocker. The maximal effect of Alpha-GEE on PGE2 release from chondrocytes was observed within 8 hours, where a 75% reduction in PGE2 release was observed.

[3] = biological target: T1, cyclooxygenase-2 (COX-2) (Homo sapiens, UniProt P35354); assay: Inhibition of cyclooxygenase-2 activity
T1 sequence (P35354 18-604): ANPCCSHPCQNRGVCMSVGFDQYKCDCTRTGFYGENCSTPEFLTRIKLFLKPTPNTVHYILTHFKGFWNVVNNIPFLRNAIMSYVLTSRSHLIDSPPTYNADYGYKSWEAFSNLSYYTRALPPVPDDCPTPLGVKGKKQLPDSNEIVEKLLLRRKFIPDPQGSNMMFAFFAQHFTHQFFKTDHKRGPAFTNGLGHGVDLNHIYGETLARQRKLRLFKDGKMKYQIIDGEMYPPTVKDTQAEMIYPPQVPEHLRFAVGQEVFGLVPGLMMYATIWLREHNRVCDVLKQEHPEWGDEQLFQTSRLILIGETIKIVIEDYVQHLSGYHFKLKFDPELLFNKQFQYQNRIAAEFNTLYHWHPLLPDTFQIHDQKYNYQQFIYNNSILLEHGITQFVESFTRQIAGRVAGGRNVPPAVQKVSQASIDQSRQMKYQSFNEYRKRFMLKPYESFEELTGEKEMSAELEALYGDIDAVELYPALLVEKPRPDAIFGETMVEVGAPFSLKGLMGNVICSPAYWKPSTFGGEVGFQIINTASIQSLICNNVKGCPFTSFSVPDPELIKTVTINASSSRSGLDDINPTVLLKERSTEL

ethyl (α-guanido-methyl) ethanoate [Alpha-GEE]
PGE2 plasma concentration, post-trial ([1]; mean ± SD after two weeks, pre-trial 268 ± 11): 264 ± 10 pg/mL | difference between pre-trial and post-trial plasma levels of PGE2 ([1]; two-week trial, 36 mg/kg/day): No significant differences; also recorded: no difference | reduction in PGE2 release from canine chondrocytes ([2]; 4 hours): approximately 60% | reduction in PGE2 release from canine chondrocytes (maximal effect) ([2]; within 8 hours): 75% | inhibition of COX-2 activity ([3]; 0.1 μM): about 10% | inhibition of COX-2 activity ([3]; 1 μM (first of three values printed for '1 μM and 100 μM')): about 15% | inhibition of COX-2 activity ([3]; 100 μM (third of three values printed for '1 μM and 100 μM')): about 15% | concentration dependency of inhibition of COX-2 ([3]; 0.1-100 μM, FIG. 2): did not show a concentration dependency | inhibition of COX-2 activity ([3]; concentration not printed (second of three values printed for '1 μM and 100 μM')): about 18%
